Data published in patent US20240384350A1, “METHODS OF TREATING CANCER WITH KINASE INHIBITORS” (BOARD OF REGENTS, THE UNIVERSITY OF TEXAS SYSTEM, priority 2021, published 2024).

Assays:
Experiment in all cases: Ba/F3 drug screening, Cell Titer Glo, IC50 Mut/WT
Assay type in all cases: cell-based
[1] = target: T1, EGFR L858R/L792H (Homo sapiens, UniProt P00533, L792H/L858R)
T1 construct: expressed in transfected cells; host or cells: Ba/F3

[2] = target: T2, EGFR L858R/T790M/C797S (Homo sapiens, UniProt P00533, C797S/L858R/T790M); conditions: T790M-like-3R, 72 hours
T2 construct: expressed in transfected cells; host or cells: Ba/F3
Protocol: (§1) Data represent the ratio of the IC50 value for a given TKI for cells with a T790M-like-3R EGFR mutation to the IC50 value for cells with wildtype EGFR.
(§2) Ba/F3 cell generation, drug screening, and IC50 approximations. Ba/F3 cells were obtained as a gift from Dr. Gordon Mills (MD Anderson Cancer Center), and maintained in RPMI (Sigma) containing 10% FBS, 1% penicillin/streptomycin, and 10 ng/ml recombinant mIL-3 (R&D Biosystems). To establish stable Ba/F3 cell lines, Ba/F3 cells were transduced with retroviruses containing mutant EGFR plasmids for 12-24 hours.
(§3) After 48-72 hours of transduction, 2 μg/ml puromycin (Invitrogen) was added to Ba/F3 cell lines in complete RPMI. To select for EGFR positive cell lines, cells were stained with PE-EGFR (Biolegend) and sorted by FACS. After sorting, EGFR positive cells were maintained in RPMI containing 10% FBS, 1% penicillin/streptomycin, and 1 ng/ml EGF to support cell viability. […] Shortly, cells were plated in 384-well plates (Greiner Bio-One) at 2000-3000 cells per well in technical triplicate. Seven different concentrations of TKIs or DMSO vehicle were added to reach a final volume of 40 μL per well. After 72 hours, 11 μL of Cell Titer Glo (Promega) was added to each well. Plates were incubated for a minimum of 10 minutes, and bioluminescence was determined using a FLUOstar OPTIMA plate reader (BMG LABTECH). Raw bioluminescence values were normalized to DMSO control treated cells, and values were plotted in GraphPad Prism. […] Drug screens were performed in technical triplicate on each plate and either duplicate or triplicate biological replicates. […] Statistical differences between groups were determined by ANOVA as described in the figure legends.

[3] = target: T3, EGFR L858R/V834L (Homo sapiens, UniProt P00533, L858R/V834L); conditions: Classical-Like, 72 hours
T3 construct: expressed in transfected cells; host or cells: Ba/F3 cells, retroviral pBabe-Puro vector
Protocol: Data represent the ratio of the IC50 value for a given TKI for cells with a classical-like EGFR mutation to the IC50 value for cells with wildtype EGFR.
as §2
After 48-72 hours of transduction, 2 μg/ml puromycin (Invitrogen) was added to Ba/F3 cell lines in complete RPMI. To select for EGFR positive cell lines, cells were stained with PE-EGFR (Biolegend) and sorted by FACS. After sorting, EGFR positive cells were maintained in RPMI containing 10% FBS, 1% penicillin/streptomycin, and 1 ng/ml EGF to support cell viability. […] Shortly, cells were plated in 384-well plates (Greiner Bio-One) at 2000-3000 cells per well in technical triplicate. Seven different concentrations of TKIs or DMSO vehicle were added to reach a final volume of 40 μL per well. After 72 hours, 11 μL of Cell Titer Glo (Promega) was added to each well. Plates were incubated for a minimum of 10 minutes, and bioluminescence was determined using a FLUOstar OPTIMA plate reader (BMG LABTECH). Raw bioluminescence values were normalized to DMSO control treated cells, and values were plotted in GraphPad Prism. […] Drug screens were performed in technical triplicate on each plate and either duplicate or triplicate biological replicates.

[4] = target: T4, EGFR T725M (Homo sapiens, UniProt P00533, T725M); conditions: Classical-Like, 72 hours
T4 construct: expressed in transfected cells; host or cells: Ba/F3 cells, retroviral pBabe-Puro vector (vector made by GeneScript from EGFR WT)

[5] = target: T5, EGFR E709_T710del insD (Homo sapiens, UniProt P00533, DEL709-709/T710D)
T5 construct: expressed in transfected cells; host or cells: Ba/F3

[6] = target: T6, EGFR L861R (Homo sapiens, UniProt P00533, L861R); conditions: Classical-Like, 72 hours
T6 construct: expressed in transfected cells; host or cells: Ba/F3 cells, retroviral pBabe-Puro vector (vector made by GeneScript from EGFR WT)

[7] = target: T7, EGFR S768dupSVD V769M (Homo sapiens, UniProt P00533, INS768MDS/V769M); conditions: Ex20, 72 hours
T7 construct: expressed in transfected cells; host or cells: Ba/F3 cells, retroviral pBabe-Puro vector (vector made by GeneScript from EGFR S768dupSVD, c.2305G > A)
Protocol: (§4) Data represent the ratio of the IC50 value for a given TKI for cells with an ex20ins EGFR mutation to the IC50 value for cells with wildtype EGFR.
as §2
(§5) After 48-72 hours of transduction, 2 μg/ml puromycin (Invitrogen) was added to Ba/F3 cell lines in complete RPMI. To select for EGFR positive cell lines, cells were stained with PE-EGFR (Biolegend) and sorted by FACS. After sorting, EGFR positive cells were maintained in RPMI containing 10% FBS, 1% penicillin/streptomycin, and 1 ng/ml EGF to support cell viability. Drug screening was performed as previously described^41,42. Shortly, cells were plated in 384-well plates (Greiner Bio-One) at 2000-3000 cells per well in technical triplicate. Seven different concentrations of TKIs or DMSO vehicle were added to reach a final volume of 40 μL per well. After 72 hours, 11 μL of Cell Titer Glo (Promega) was added to each well. Plates were incubated for a minimum of 10 minutes, and bioluminescence was determined using a FLUOstar OPTIMA plate reader (BMG LABTECH). Raw bioluminescence values were normalized to DMSO control treated cells, and values were plotted in GraphPad Prism. […] Drug screens were performed in technical triplicate on each plate and either duplicate or triplicate biological replicates. […] Statistical differences between groups were determined by ANOVA as described in the figure legends.

[8] = target: T8, EGFR S768I V774M (Homo sapiens, UniProt P00533, S768I/V774M)
T8 construct: host or cells: Ba/F3

[9] = target: T9, EGFR N771dupN G724S (Homo sapiens, UniProt P00533, DUP771-771/G724S); conditions: Ex20, 72 hours
T9 construct: expressed in transfected cells; host or cells: Ba/F3 cells, retroviral pBabe-Puro vector (vector made by GeneScript from EGFR G724S, c.2313_2314insAAC)
Protocol: as §4, §2, §5

[10] = target: T10, EGFR Ex19del L718Q (Homo sapiens, UniProt P00533, DEL746-750/L718Q)
T10 construct: expressed in transfected cells; host or cells: Ba/F3
Protocol: (§6) Data represent the ratio of the IC50 value for a given TKI for cells with a PACC EGFR mutation to the IC50 value for cells with wildtype EGFR.
as §2
(§7) After 48-72 hours of transduction, 2 μg/ml puromycin (Invitrogen) was added to Ba/F3 cell lines in complete RPMI. To select for EGFR positive cell lines, cells were stained with PE-EGFR (Biolegend) and sorted by FACS. After sorting, EGFR positive cells were maintained in RPMI containing 10% FBS, 1% penicillin/streptomycin, and 1 ng/ml EGF to support cell viability. Drug screening was performed as previously described^41,42. Shortly, cells were plated in 384-well plates (Greiner Bio-One) at 2000-3000 cells per well in technical triplicate. Seven different concentrations of TKIs or DMSO vehicle were added to reach a final volume of 40 μL per well. After 72 hours, 11 μL of Cell Titer Glo (Promega) was added to each well. Plates were incubated for a minimum of 10 minutes, and bioluminescence was determined using a FLUOstar OPTIMA plate reader (BMG LABTECH). Raw bioluminescence values were normalized to DMSO control treated cells, and values were plotted in GraphPad Prism. […] Drug screens were performed in technical triplicate on each plate and either duplicate or triplicate biological replicates.

[11] = target: T11, EGFR K754E (Homo sapiens, UniProt P00533, K754E); conditions: Classical-Like, 72 hours
T11 construct: expressed in transfected cells; host or cells: Ba/F3 cells, retroviral pBabe-Puro vector

[12] = target: T12, EGFR L747P (Homo sapiens, UniProt P00533, L747P)
T12 construct: expressed in transfected cells; host or cells: Ba/F3

[13] = target: T13, EGFR G719A L861Q (Homo sapiens, UniProt P00533, G719A/L861Q)
T13 construct: expressed in transfected cells; host or cells: Ba/F3

[14] = target: T14, EGFR G719A/R776C (Homo sapiens, UniProt P00533, G719A/R776C)
T14 construct: expressed in transfected cells; host or cells: Ba/F3

[15] = target: T15, EGFR S768I/V769L (Homo sapiens, UniProt P00533, S768I/V769L)
T15 construct: host or cells: Ba/F3
Protocol: as §6, §2, §7

[16] = tested on: EGFR I740dupIPVAK
[17] = target: T16, EGFR Ex19del T790M L718V (Homo sapiens, UniProt P00533, DEL746-750/L718V/T790M); conditions: T790M-like-3S, 72 hours
T16 construct: expressed in transfected cells; host or cells: Ba/F3

[18] = target: T17, EGFR L858R/T790M (Homo sapiens, UniProt P00533, L858R/T790M); conditions: T790M-like-3S, 72 hours
T17 construct: expressed in transfected cells; host or cells: Ba/F3

[19] = target: T18, EGFR S784F (Homo sapiens, UniProt P00533, S784F); conditions: Classical-Like, 72 hours
T18 construct: expressed in transfected cells; host or cells: Ba/F3 cells, retroviral pBabe-Puro vector (vector made by GeneScript from EGFR WT)

[20] = target: T19, EGFR L747S (Homo sapiens, UniProt P00533, L747S)
T19 construct: expressed in transfected cells; host or cells: Ba/F3
Protocol: as §6, §2, §7

[21] = target: T20, EGFR L858R (Homo sapiens, UniProt P00533, L858R); conditions: Classical-Like, 72 hours
T20 construct: expressed in transfected cells; host or cells: Ba/F3 cells, retroviral pBabe-Puro vector

[22] = target: T21, EGFR Ex19del G724S (Homo sapiens, UniProt P00533, DEL746-750/G724S)
T21 construct: expressed in transfected cells; host or cells: Ba/F3

[23] = target: T22, EGFR Ex19del (Homo sapiens, UniProt P00533, DEL746-750); conditions: Classical-Like, 72 hours
T22 construct: expressed in transfected cells; host or cells: Ba/F3 cells, retroviral pBabe-Puro vector

[24] = target: T23, EGFR G724S T790M (Homo sapiens, UniProt P00533, G724S/T790M); conditions: T790M-like-3R, 72 hours
T23 construct: expressed in transfected cells; host or cells: Ba/F3
Protocol: as §1, §2, §3

SMILES | ratio of IC50 for cells with mutant EGFR to IC50 for cells with wildtype EGFR (Mut/WT) [2] | ratio of IC50 for cells with mutant EGFR to IC50 for cells with wildtype EGFR (Mut/WT) [3] | ratio of IC50 for cells with mutant EGFR to IC50 for cells with wildtype EGFR (Mut/WT) [4] | ratio of IC50 for cells with mutant EGFR to IC50 for cells with wildtype EGFR (Mut/WT) [6] | ratio of IC50 for cells with mutant EGFR to IC50 for cells with wildtype EGFR (Mut/WT) [7] | ratio of IC50 for cells with mutant EGFR to IC50 for cells with wildtype EGFR (Mut/WT) [9] | ratio of IC50 for cells with mutant EGFR to IC50 for cells with wildtype EGFR (Mut/WT) [11] | ratio of IC50 for cells with mutant EGFR to IC50 for cells with wildtype EGFR (Mut/WT) [17] | ratio of IC50 for cells with mutant EGFR to IC50 for cells with wildtype EGFR (Mut/WT) [18] | ratio of IC50 for cells with mutant EGFR to IC50 for cells with wildtype EGFR (Mut/WT) [19] | ratio of IC50 for cells with mutant EGFR to IC50 for cells with wildtype EGFR (Mut/WT) [21] | ratio of IC50 for cells with mutant EGFR to IC50 for cells with wildtype EGFR (Mut/WT) [23] | ratio of IC50 for cells with mutant EGFR to IC50 for cells with wildtype EGFR (Mut/WT) [24] | also measured
C=CC(=O)Nc1cc(Nc2nccc(-c3c[nH]c4ccccc34)n2)c(OC)cc1N(C)CCN(C)C [AZ5104] | 78.11 | 0.4038 | 0.959 | 0.2335 | 0.3864 | 1.826 | 0.01871 | 0.7041 | 0.1777 | 0.01428 | 0.1965 | 0.03035 | 0.428 | ratio of the IC50 value for cells with a PACC EGFR mutation to the IC50 value for cells with wildtype EGFR ([1]; Ba/F3 cells, EGFR L858R/L792H (PACC), Mut/WT): 4.408; ratio of the IC50 value for cells with a PACC EGFR mutation to the IC50 value for cells with wildtype EGFR ([5]; Ba/F3 cells, EGFR E709_T710del insD (PACC), Mut/WT): 0.03063; ratio of the IC50 value for cells with a PACC EGFR mutation to the IC50 value for cells with wildtype EGFR ([8]; Ba/F3 cells, EGFR S768I V774M (PACC), Mut/WT): 0.5809; ratio of the IC50 value for cells with a PACC EGFR mutation to the IC50 value for cells with wildtype EGFR ([10]; Ba/F3 cells, EGFR Ex19del L718Q (PACC), Mut/WT): 1.487; ratio of the IC50 value for cells with a PACC EGFR mutation to the IC50 value for cells with wildtype EGFR ([12]; Ba/F3 cells, EGFR L747P (PACC), Mut/WT): 3.59; ratio of the IC50 value for cells with a PACC EGFR mutation to the IC50 value for cells with wildtype EGFR ([13]; Ba/F3 cells, EGFR G719A L861Q (PACC), Mut/WT): 0.8044; ratio of the IC50 value for cells with a PACC EGFR mutation to the IC50 value for cells with wildtype EGFR ([14]; Ba/F3 cells, EGFR G719A/R776C (PACC), Mut/WT): 0.2136; ratio of the IC50 value for cells with a PACC EGFR mutation to the IC50 value for cells with wildtype EGFR ([15]; Ba/F3 cells, EGFR S768I/V769L (PACC), Mut/WT): 0.599; ratio of the IC50 value for cells with a PACC EGFR mutation to the IC50 value for cells with wildtype EGFR ([16]; Ba/F3 cells, EGFR I740dupIPVAK (PACC), Mut/WT): 2.234; ratio of the IC50 value for cells with a PACC EGFR mutation to the IC50 value for cells with wildtype EGFR ([20]; Ba/F3 cells, EGFR L747S (PACC), Mut/WT): 4.201; ratio of the IC50 value for cells with a PACC EGFR mutation to the IC50 value for cells with wildtype EGFR ([22]; Ba/F3 cells, EGFR Ex19del G724S (PACC), Mut/WT): 3.178
COc1cc2ncnc(Nc3cccc(Cl)c3F)c2cc1OC(=O)N1CCN(C)C[C@H]1C [AZD3759] | 9.625 | 0.002241 | 0.1059 | 0.03704 | 1.659 | 1.258 | 0.04651 | 4.812 | 6.744 | 0.0702 | 0.00585 | 0.0001195 | 7.7 | ratio of IC50 for cells with mutant EGFR to IC50 for cells with wildtype EGFR (Mut/WT) ([1]; PACC, L858R/L792H, Ba/F3, 72 hours): 0.03125; ratio of IC50 for cells with mutant EGFR to IC50 for cells with wildtype EGFR (Mut/WT) ([5]; PACC, E709_T710del insD, Ba/F3, 72 hours): 0.2123; ratio of IC50 for cells with mutant EGFR to IC50 for cells with wildtype EGFR (Mut/WT) ([8]; PACC, S768I V774M, Ba/F3, 72 hours): 0.2555; ratio of IC50 for cells with mutant EGFR to IC50 for cells with wildtype EGFR (Mut/WT) ([10]; PACC, Ex19del L718Q, Ba/F3, 72 hours): 4.812; ratio of IC50 for cells with mutant EGFR to IC50 for cells with wildtype EGFR (Mut/WT) ([12]; PACC, L747P, Ba/F3, 72 hours): 0.2937; ratio of IC50 for cells with mutant EGFR to IC50 for cells with wildtype EGFR (Mut/WT) ([13]; PACC, G719A L861Q, Ba/F3, 72 hours): 0.07458; ratio of IC50 for cells with mutant EGFR to IC50 for cells with wildtype EGFR (Mut/WT) ([14]; PACC, G719A/R776C, Ba/F3, 72 hours): 0.2006; ratio of IC50 for cells with mutant EGFR to IC50 for cells with wildtype EGFR (Mut/WT) ([15]; PACC, S768I/V769L, Ba/F3, 72 hours): 0.7072; ratio of IC50 for cells with mutant EGFR to IC50 for cells with wildtype EGFR (Mut/WT) ([16]; PACC, I740dupIPVAK, Ba/F3, 72 hours): 0.08984; ratio of IC50 for cells with mutant EGFR to IC50 for cells with wildtype EGFR (Mut/WT) ([20]; PACC, L747S, Ba/F3, 72 hours): 0.08122; ratio of IC50 for cells with mutant EGFR to IC50 for cells with wildtype EGFR (Mut/WT) ([22]; PACC, Ex19del G724S, Ba/F3, 72 hours): 4.812
